The source of these data is US11111237B2, “Bicyclic compound and use thereof” (SK BIOPHARMACEUTICALS CO., LTD., priority 2019, dated 2021).

Broadly, the IC50 is the midpoint of a concentration-inhibition curve. Low values mean greater potency, high ones weaker potency.

Chain of PRMT5-MEP50 enzyme complex (O14744 2-637): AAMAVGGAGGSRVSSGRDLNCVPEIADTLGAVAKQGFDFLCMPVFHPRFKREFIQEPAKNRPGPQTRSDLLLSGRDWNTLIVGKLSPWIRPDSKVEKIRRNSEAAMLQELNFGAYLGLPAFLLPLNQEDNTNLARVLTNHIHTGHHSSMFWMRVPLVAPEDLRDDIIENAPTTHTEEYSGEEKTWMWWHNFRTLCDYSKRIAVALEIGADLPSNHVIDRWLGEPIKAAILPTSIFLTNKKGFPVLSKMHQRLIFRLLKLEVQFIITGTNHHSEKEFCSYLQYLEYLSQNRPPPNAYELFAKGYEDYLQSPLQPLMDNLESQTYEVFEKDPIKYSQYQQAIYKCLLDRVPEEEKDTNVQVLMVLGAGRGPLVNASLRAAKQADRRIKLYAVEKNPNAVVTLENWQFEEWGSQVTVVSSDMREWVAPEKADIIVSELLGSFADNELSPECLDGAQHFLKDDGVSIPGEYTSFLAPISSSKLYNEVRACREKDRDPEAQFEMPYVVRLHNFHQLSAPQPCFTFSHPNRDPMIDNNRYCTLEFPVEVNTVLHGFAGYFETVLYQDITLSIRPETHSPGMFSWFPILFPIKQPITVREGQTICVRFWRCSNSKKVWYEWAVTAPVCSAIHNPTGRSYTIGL
Chain of PRMT5-MEP50 enzyme complex (Q9BQA1 2-342 partner): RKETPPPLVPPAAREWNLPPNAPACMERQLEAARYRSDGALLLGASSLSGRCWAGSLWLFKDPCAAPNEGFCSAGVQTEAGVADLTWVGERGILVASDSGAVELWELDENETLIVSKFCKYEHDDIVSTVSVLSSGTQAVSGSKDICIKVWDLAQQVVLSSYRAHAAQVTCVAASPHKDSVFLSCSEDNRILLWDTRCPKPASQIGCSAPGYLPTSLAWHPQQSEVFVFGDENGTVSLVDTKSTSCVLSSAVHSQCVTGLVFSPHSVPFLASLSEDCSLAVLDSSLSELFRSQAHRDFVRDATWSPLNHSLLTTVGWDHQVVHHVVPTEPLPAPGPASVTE

This experiment concerns the target PRMT5-MEP50 enzyme complex (Homo sapiens (Human), UniProt O14744). As to the kind of experiment: PRMT5 enzyme activity in vitro assay (methylation of histone H4R3, ELISA absorbance at 450 nm). It is filed as biochemical. Conditions: SAM, histone H4 peptide, room temperature 2 hours, 8 points from 10 μM to 0.128 nM. The method, then: Method for Measuring Enzyme Activity
In vitro assay: PRMT5-MEP50 enzyme complex, cofactor S-adenosylmethionine (SAM) and histone H4 peptide were reacted in vitro, and methylation of arginine (H4R3)—which is the third amino acid of histone H4—was measured in order to measure the enzyme activity of PRMT5.
Reagents: PRMT5-MEP50 enzyme complex (Catalog No. 51045), blocking buffer (52100-B), histone methyltransferase reaction buffer 2 (4×HMT assay buffer 2, Catalog No. 52170), and primary antibody (primary antibody 4-3, Catalog No. 52150) were purchased from BPS Bioscience (USA). The histone H4 peptide (1-20 amino acids) was custom made by Komabiotech (Korea) and used. S-adenosylmethionine was purchased from NEB (New England Biolabs, USA, Catalog No. B9003S). Plates for coating histone H4 peptide, washing buffer and color development reagent were purchased from the following vendors: Plate (Immobilizer™-Amino Plate, NUNC, Denmark, Catalog No. 436023), carbonate-bicarbonate buffer (Sigma-Aldrich, USA, Catalog No. C3041), washing buffer (10×TBST, Biosesang, Korea, Catalog No. T2005), TMB ELISA substrate (Abcam, UK, Catalog No. ab210902), horseradish peroxidase (HRP)-conjugated antibody (Abcam, UK, Catalog No. ab6721).
Experimental procedure: The histone H4 peptide was diluted with carbonate-bicarbonate buffer and prepared to 100 μg/mL, and then dispensed onto the plate per 100 μL and reacted at 37° C. for 1 hour. PRMT5-MEP50 enzyme complex and S-adenosylmethionine were diluted with histone methyltransferase reaction buffer to prepare 5 μg/mL and 2 μM, respectively, and then 20 μL of PRMT5-MEP50 enzyme complex and 25 μL of S-adenosylmethionine were dispensed onto the plate prepared above. 5 μL of the compound diluted with 10% dimethyl sulfoxide solution was added thereto and reacted at room temperature for 2 hours (final volume=50 μL). The concentration of the compound was diluted 1:5 from 10 μM until the lowest concentration of 0.128 nM, and 8 points were used for the test. After preparing the primary antibody by diluting 1:2000 with blocking buffer, 100 μL was added to the plate and reacted at room temperature for 1 hour. After preparing horseradish peroxidase-conjugated antibody by diluting 1:10,000 with blocking buffer, 100 μL was added to the plate and reacted at room temperature for 1 hour. 100 μL of TMB substrate was added and reacted for 3 minutes at room temperature, and 100 μL of 1 N sulfuric acid was then added to terminate the reaction. Then, the absorbance at 450 nm was measured to calculate the IC50 value of the compound. (+++: 1 to 100 nM, ++: greater than 100 to 1,000 nM, +: greater than 1,000 to 10,000 nM)
Consider `O=C1c2ccc(CN3CCCC(F)(F)C3)cc2OCCN1C[C@H](O)CN1CCc2ccccc2C1` [Example 42, 8-[(3,3-difluoro-1-piperidyl)methyl]-4-[(2R)-3-(3,4-dihydro-1H-isoquinolin-2-yl)-2-hydroxy-propyl]-2,3-dihydro-1,4-benzoxazepin-5-one], for which the IC50 was 100 to 1000 nM.

Compound `O=C1c2ccc(CN3CCCC(F)C3)cc2OCCN1C[C@H](O)CN1CCc2ccccc2C1` (stereo partly drawn) [Example 43, 4-[(2R)-3-(3,4-dihydro-1H-isoquinolin-2-yl)-2-hydroxy-propyl]-8-[(3-fluoro-1-piperidyl)methyl]-2,3-dihydro-1,4-benzoxazepin-5-one] yielded a concentration for half-maximal inhibition (IC50) of 1 to 100 nM.

In turn, `O=C1c2ccc(CN3CCCC(O)C3)cc2OCCN1C[C@H](O)CN1CCc2ccccc2C1` (stereo partly drawn) [Example 44, 4-[(2R)-3-(3,4-dihydro-1H-isoquinolin-2-yl)-2-hydroxy-propyl]-8-[(3-hydroxy-1-piperidyl)methyl]-2,3-dihydro-1,4-benzoxazepin-5-one] returned an IC50 of 1 to 100 nM.

The compound `O=C1c2ccc(CN3CCC(O)CC3)cc2OCCN1C[C@H](O)CN1CCc2ccccc2C1` [Example 45, 4-[(2R)-3-(3,4-dihydro-1H-isoquinolin-2-yl)-2-hydroxy-propyl]-8-[(4-hydroxy-1-piperidyl)methyl]-2,3-dihydro-1,4-benzoxazepin-5-one] gave a half-maximal inhibitory concentration (IC50) of 1 to 100 nM.

Compound `O=C1c2ccc(CN3CCC[C@H]3CO)cc2OCCN1C[C@H](O)CN1CCc2ccccc2C1` [Example 46, 4-[(2R)-3-(3,4-dihydro-1H-isoquinolin-2-yl)-2-hydroxy-propyl]-8-[[(2S)-2-(hydroxymethyl)pyrrolidin-1-yl]methyl]-2,3-dihydro-1,4-benzoxazepin-5-one] gave an IC50 of 100 to 1000 nM.

In the case of `O=C1c2ccc(CN3CCC[C@@H]3CO)cc2OCCN1C[C@H](O)CN1CCc2ccccc2C1` [Example 47, 4-[(2R)-3-(3,4-dihydro-1H-isoquinolin-2-yl)-2-hydroxy-propyl]-8-[[(2R)-2-(hydroxymethyl)pyrrolidin-1-yl]methyl]-2,3-dihydro-1,4-benzoxazepin-5-one], the IC50 was in the range of 100 to 1000 nM.

Take `CCC1CCCN1Cc1ccc2c(c1)OCCN(C[C@H](O)CN1CCc3ccccc3C1)C2=O` (stereo partly drawn) [Example 48, 4-[(2R)-3-(3,4-dihydro-1H-isoquinolin-2-yl)-2-hydroxy-propyl]-8-[(2-ethylpyrrolidin-1-yl)methyl]-2,3-dihydro-1,4-benzoxazepin-5-one]: the IC50 lay within 100 to 1000 nM.

`COC[C@@H]1CCCN1Cc1ccc2c(c1)OCCN(C[C@H](O)CN1CCc3ccccc3C1)C2=O` [Example 49, 4-[(2R)-3-(3,4-dihydro-1H-isoquinolin-2-yl)-2-hydroxy-propyl]-8-[[(2S)-2-(methoxymethyl)pyrrolidin-1-yl]methyl]-2,3-dihydro-1,4-benzoxazepin-5-one]: the concentration for half-maximal inhibition (IC50) lay in the range of 100 to 1000 nM.

`COC[C@H]1CCCN1Cc1ccc2c(c1)OCCN(C[C@H](O)CN1CCc3ccccc3C1)C2=O` [Example 50, 4-[(2R)-3-(3,4-dihydro-1H-isoquinolin-2-yl)-2-hydroxy-propyl]-8-[[(2R)-2-(methoxymethyl)pyrrolidin-1-yl]methyl]-2,3-dihydro-1,4-benzoxazepin-5-one]: the half-inhibitory concentration (IC50) was 1 to 100 nM.

Compound `O=C1c2ccc(CN3CCC(F)C3)cc2OCCN1C[C@H](O)CN1CCc2ccccc2C1` (stereo partly drawn) [Example 51, 4-[(2R)-3-(3,4-dihydro-1H-isoquinolin-2-yl)-2-hydroxy-propyl]-8-[(3-fluoropyrrolidin-1-yl)methyl]-2,3-dihydro-1,4-benzoxazepin-5-one] had a concentration for half-maximal inhibition (IC50) of 100 to 1000 nM.

Consider `O=C1c2ccc(CN3CCC(F)(F)C3)cc2OCCN1C[C@H](O)CN1CCc2ccccc2C1` [Example 52, 8-[(3,3-difluoropyrrolidin-1-yl)methyl]-4-[(2R)-3-(3,4-dihydro-1H-isoquinolin-2-yl)-2-hydroxy-propyl]-2,3-dihydro-1,4-benzoxazepin-5-one], for which the half-maximal inhibitory concentration (IC50) fell in the range of 100 to 1000 nM.

`CC(=O)N1CCN(Cc2ccc3c(c2)OCCN(C[C@H](O)CN2CCc4ccccc4C2)C3=O)CC1` [Example 53, 8-[(4-acetylpiperazin-1-yl)methyl]-4-[(2R)-3-(3,4-dihydro-1H-isoquinolin-2-yl)-2-hydroxy-propyl]-2,3-dihydro-1,4-benzoxazepin-5-one] had an IC50 of 100 to 1000 nM.

In the case of `CN1CCN(Cc2ccc3c(c2)OCCN(C[C@H](O)CN2CCc4ccccc4C2)C3=O)CC1` [Example 54, 4-[(2R)-3-(3,4-dihydro-1H-isoquinolin-2-yl)-2-hydroxy-propyl]-8-[(4-methylpiperazin-1-yl)methyl]-2,3-dihydro-1,4-benzoxazepin-5-one], the IC50 was in the range of 1 to 100 nM.

In turn, `O=C1c2ccc(CN3CC4CC3CO4)cc2OCCN1C[C@H](O)CN1CCc2ccccc2C1` (stereo partly drawn) [Example 55, 4-[(2R)-3-(3,4-dihydro-1H-isoquinolin-2-yl)-2-hydroxy-propyl]-8-(2-oxa-5-azabicyclo[2.2.1]heptan-5-ylmethyl)-2,3-dihydro-1,4-benzoxazepin-5-one] displayed an IC50 of 100 to 1000 nM.

The compound `O=C1c2ccc(OCc3cccnc3)cc2OCCN1C[C@H](O)CN1CCc2ccccc2C1` [Example 56, 4-[(2R)-3-(3,4-dihydro-1H-isoquinolin-2-yl)-2-hydroxy-propyl]-8-(3-pyridylmethoxy)-2,3-dihydro-1,4-benzoxazepin-5-one] returned an IC50 of 100 to 1000 nM.

In turn, `O=C1c2ccc(OCc3ccncc3)cc2OCCN1C[C@H](O)CN1CCc2ccccc2C1` [Example 57, 4-[(2R)-3-(3,4-dihydro-1H-isoquinolin-2-yl)-2-hydroxy-propyl]-8-(4-pyridylmethoxy)-2,3-dihydro-1,4-benzoxazepin-5-one] registered a concentration for half-maximal inhibition (IC50) of 1 to 100 nM.

`O=C1c2ccc(OCc3ccnc(F)c3)cc2OCCN1C[C@H](O)CN1CCc2ccccc2C1` [Example 58, 4-[(2R)-3-(3,4-dihydro-1H-isoquinolin-2-yl)-2-hydroxy-propyl]-8-[(2-fluoro-4-pyridyl)methoxy]-2,3-dihydro-1,4-benzoxazepin-5-one] yielded an IC50 of 1 to 100 nM.

The compound `O=C1c2ccc(OCc3cc(Cl)nc(Cl)c3)cc2OCCN1C[C@H](O)CN1CCc2ccccc2C1` [Example 59, 8-[(2,6-dichloro-4-pyridyl)methoxy]-4-[(2R)-3-(3,4-dihydro-1H-isoquinolin-2-yl)-2-hydroxy-propyl]-2,3-dihydro-1,4-benzoxazepin-5-one] had an IC50 of 100 to 1000 nM.

On to `O=C1c2ccc(OCc3ccnc(F)c3F)cc2OCCN1C[C@H](O)CN1CCc2ccccc2C1` [Example 60, 8-[(2,3-difluoro-4-pyridyl)methoxy]-4-[(2R)-3-(3,4-dihydro-1H-isoquinolin-2-yl)-2-hydroxy-propyl]-2,3-dihydro-1,4-benzoxazepin-5-one], for which the concentration for half-maximal inhibition (IC50) fell in the range of 100 to 1000 nM.

The compound `O=C1c2ccc(OCc3ccc(F)nc3)cc2OCCN1C[C@H](O)CN1CCc2ccccc2C1` [Example 61, 4-[(2R)-3-(3,4-dihydro-1H-isoquinolin-2-yl)-2-hydroxy-propyl]-8-[(6-fluoro-3-pyridyl)methoxy]-2,3-dihydro-1,4-benzoxazepin-5-one] gave a half-maximal inhibitory concentration (IC50) of 100 to 1000 nM.

For `O=C1c2ccc(OCc3ccncc3F)cc2OCCN1C[C@H](O)CN1CCc2ccccc2C1` [Example 62, 4-[(2R)-3-(3,4-dihydro-1H-isoquinolin-2-yl)-2-hydroxy-propyl]-8-[(3-fluoro-4-pyridyl)methoxy]-2,3-dihydro-1,4-benzoxazepin-5-one], the 50% inhibitory concentration (IC50) is 1 to 100 nM.
